≈ marks a conversion by molar mass, not a printed value.
Assays:
[1] = Aqueous solubility of the compound at pH 7.4; format: physicochemical; conditions: aqueous solution
[2] = Aqueous solubility of the compound at pH 2.5; format: physicochemical; conditions: aqueous solution
[3] = Ratio of AUC in brain to AUC in plasma of rat at 10 mg/kg, po; format: ADME, organism-based; parameters: dose 10 mg/kg, route oral; conditions: brain and plasma
[4] = AUC in rat at 10 mg/kg, po; format: ADME, organism-based; parameters: dose 10 mg/kg, route oral; conditions: plasma
[5] = Tmax in rat at 10 mg/kg, po; format: ADME, organism-based; parameters: dose 10 mg/kg, route oral; conditions: in vivo
[6] = Cmax in rat at 10 mg/kg, po; format: ADME, organism-based; parameters: dose 10 mg/kg, route oral; conditions: in vivo
[7] = Oral bioavailability in rat at 10 mg/kg; format: ADME, organism-based; conditions: in vivo
[8] = Volume of distribution at steady state in rat at 1 mg/kg, iv; format: ADME, organism-based; parameters: dose 1 mg/kg, route intravenous; conditions: in vivo, read-out: Vdss
[9] = test system: Rattus norvegicus; assay: AUC in rat at 1 mg/kg, iv; format: ADME, organism-based, Plasma; parameters: dose 1 mg/kg, route intravenous; conditions: in vivo

Question: For `CN(C(=O)Cn1c(=O)oc2ccc(-c3ccccc3)cc21)c1cccnc1`, which solubility [1] is on record?
Answer: 45 µg/mL (≈ 125 µM)

Question: For `CN(C(=O)Cn1c(=O)oc2ccc(-c3ccccc3)cc21)c1ccccc1`, which solubility [1] is on record?
Answer: < 1 µg/mL

Question: With `CN(C(=O)Cn1c(=O)oc2ccc(-c3cccnc3)cc21)c1ccccc1` as the molecule, how does the solubility [2] read?
Answer: 440 µg/mL (≈ 1220 µM)

Question: Which Kp [3] does the source give for `CN(C(=O)Cn1c(=O)oc2ccc(-c3cccnc3)cc21)c1ccccc1.Cl` here?
Answer: 0.63

Question: What about the AUC [4] of the same molecule?
Answer: 8370 ng·h/mL

Question: What about the Tmax [5] of the same molecule?
Answer: 1 h

Question: And the Cmax [6]?
Answer: 50.4 ng/mL

Question: What about the bioavailability [7] of the same molecule?
Answer: 13.9%

Question: And the Vd [8]?
Answer: 4.4 L/kg

Question: What about the AUC [9] of the same molecule?
Answer: 6042 ng·h/mL
